# According to patent US20240158392A1 (Janssen Biotech, Inc., priority 2021, published 2024):
# Target: SIK2 (Homo sapiens, UniProt Q9H0K1)
# Experiment: SIK2 Enzymatic Assay High Version 2 (High ATP)
# Assay type: biochemical
# Conditions: not given
# Method in brief: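 At room temperature, enzyme (6 nM, 2× final) was preincubated with compound for 30 min, then 6 mM ATP and 400 μM HDAC5tide (both 2× final) were added for 2 h. ADP formed was measured by ADP-Glo Max (2 h reagent, 1 h detection) using luminescence.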
# SIK2, sequence (Q9H0K1 whole entry, species assumed): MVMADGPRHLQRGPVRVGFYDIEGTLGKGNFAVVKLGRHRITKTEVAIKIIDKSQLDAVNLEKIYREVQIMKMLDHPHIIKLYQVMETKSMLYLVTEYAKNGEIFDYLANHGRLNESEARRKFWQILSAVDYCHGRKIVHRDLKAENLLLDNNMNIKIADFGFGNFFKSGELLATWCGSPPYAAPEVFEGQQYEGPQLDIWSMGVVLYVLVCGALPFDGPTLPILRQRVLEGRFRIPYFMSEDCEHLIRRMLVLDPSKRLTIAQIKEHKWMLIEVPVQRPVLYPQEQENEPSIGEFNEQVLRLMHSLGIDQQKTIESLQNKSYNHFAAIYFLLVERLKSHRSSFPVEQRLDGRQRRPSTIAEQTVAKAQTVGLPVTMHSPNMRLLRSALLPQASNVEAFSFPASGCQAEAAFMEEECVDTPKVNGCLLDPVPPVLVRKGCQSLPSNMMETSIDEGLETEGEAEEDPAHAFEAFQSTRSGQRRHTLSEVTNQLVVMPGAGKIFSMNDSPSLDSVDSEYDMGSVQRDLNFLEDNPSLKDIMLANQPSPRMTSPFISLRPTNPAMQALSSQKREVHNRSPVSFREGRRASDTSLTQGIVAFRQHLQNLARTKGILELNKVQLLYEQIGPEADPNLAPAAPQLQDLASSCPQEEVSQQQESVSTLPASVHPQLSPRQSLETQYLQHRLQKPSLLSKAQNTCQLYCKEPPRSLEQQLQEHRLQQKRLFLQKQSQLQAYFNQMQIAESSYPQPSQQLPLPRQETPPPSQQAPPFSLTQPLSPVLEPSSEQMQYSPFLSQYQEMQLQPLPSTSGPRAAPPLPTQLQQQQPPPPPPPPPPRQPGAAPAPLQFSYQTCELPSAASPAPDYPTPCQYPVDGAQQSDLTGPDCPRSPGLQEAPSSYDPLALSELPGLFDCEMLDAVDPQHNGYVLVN
row,Structure (SMILES),IC50
1,"Cc1cc(-c2ccn3nc(Nc4ccc(C(=O)N(C)C)cn4)cc3c2)c(O[C@H]2C[C@H]3COC[C@@H](C2)N3)cn1 [Example 383, N,N-dimethyl-6-[[5-[2-methyl-5-[[(1S,5R,7s)-3-oxa-9-azabicyclo[3.3.1]nonan-7-yl]oxy]-4-pyridyl]pyrazolo[1,5-a]pyridin-2-yl]amino]pyridine-3-carboxamide]",0.000947 µM
2,"Cc1cc(-c2ccn3nc(Nc4ccc(C)nn4)cc3c2)c(O[C@@H]2[C@@H]3CO[C@H]2CN3)cn1 [Example 523, 5-[2-methyl-5-[[(1S,4S,7R)-2-oxa-5-azabicyclo[2.2.1]heptan-7-yl]oxy]-4-pyridyl]-N-(6-methylpyridazin-3-yl)pyrazolo[1,5-a]pyridin-2-amine]",0.00462 µM
3,"Cc1cnc(Nc2cc3cc(-c4cc(C)ncc4O[C@@H]4[C@@H]5CO[C@H]4CN5)ccn3n2)cn1 [Example 528, 5-[2-methyl-5-[[(1S,4S,7R)-2-oxa-5-azabicyclo[2.2.1]heptan-7-yl]oxy]-4-pyridyl]-N-(5-methylpyrazin-2-yl)pyrazolo[1,5-a]pyridin-2-amine]",0.0642 µM
4,"Cc1cc(-c2ccn3nc(Nc4ccnnc4)cc3c2)c(O[C@H]2C[C@H]3COC[C@@H](C2)N3)cn1 [Example 368, 5-[2-methyl-5-[[(1S,5R,7s)-3-oxa-9-azabicyclo[3.3.1]nonan-7-yl]oxy]-4-pyridyl]-N-pyridazin-4-yl-pyrazolo[1,5-a]pyridin-2-amine]",< 0.000847 µM
5,"Cc1cc(-c2ccn3nc(Nc4cnccn4)cc3c2)c(O[C@H]2C[C@H]3COC[C@@H](C2)N3C)cn1 [Example 418, 5-[2-methyl-5-[[(1S,5R,7s)-9-methyl-3-oxa-9-azabicyclo[3.3.1]nonan-7-yl]oxy]-4-pyridyl]-N-pyrazin-2-yl-pyrazolo[1,5-a]pyridin-2-amine]",< 0.000847 µM
6,"Cc1cc(-c2ccn3nc(Nc4cn(CC(C)(C)O)nc4C(=O)C(F)(F)F)cc3c2)c(O[C@H]2C[C@H]3COC[C@@H](C2)N3)cn1 [Example 122, 1-(4-((5-(5-(((1R,5S,7s)-3-oxa-9-azabicyclo[3.3.1]nonan-7-yl)oxy)-2-methylpyridin-4-yl)pyrazolo[1,5-a]pyridin-2-yl)amino)-1-(2-hydroxy-2-methylpropyl)-1H-pyrazol-3-yl)-2,2,2-trifluoroethan-1-one]",2.43 µM
7,"Cc1cc(-c2ccn3nc(NC(=O)C4CC4)cc3c2)c(OC[C@H]2CCN2CCF)cn1 [Example 529, N-[5-[5-[[(2R)-1-(2-fluoroethyl)azetidin-2-yl]methoxy]-2-methyl-4-pyridyl]pyrazolo[1,5-a]pyridin-2-yl]cyclopropanecarboxamide]",0.000963 µM
8,"Cc1cc(-c2ccn3nc(NC(=O)C4CC4)cc3c2)c(OC[C@@H]2CCN2)cn1 [Example 526, N-[5-[5-[[(2S)-azetidin-2-yl]methoxy]-2-methyl-4-pyridyl]pyrazolo[1,5-a]pyridin-2-yl]cyclopropanecarboxamide]",0.0198 µM
9,"CNC(=O)c1ccc(Nc2cc3cc(-c4cc(C)ncc4O[C@H]4C[C@H]5COC[C@@H](C4)N5)ccn3n2)nc1 [Example 173, 6-((5-(5-(((1R,5S,7s)-3-oxa-9-azabicyclo[3.3.1]nonan-7-yl)oxy)-2-methylpyridin-4-yl)pyrazolo[1,5-a]pyridin-2-yl)amino)-N-methylnicotinamide]",< 0.000847 µM
10,"CC#Cc1cc(-c2ccn3nc(NC(=O)C4CC4)cc3c2)c(O[C@@H]2C[C@H]3COC[C@@H](C2)N3)cn1 [Example 439, N-[5-[5-[[(1S,5R)-3-oxa-9-azabicyclo[3.3.1]nonan-7-yl]oxy]-2-prop-1-ynyl-4-pyridyl]pyrazolo[1,5-a]pyridin-2-yl]cyclopropanecarboxamide]",0.00103 µM
11,"Cc1cc(-c2ccn3nc(Nc4ccc(C5CC5)nn4)cc3c2)c(O[C@@H]2[C@@H]3CO[C@H]2CN3)cn1 [Example 525, N-(6-cyclopropylpyridazin-3-yl)-5-[2-methyl-5-[[(1S,4S,7R)-2-oxa-5-azabicyclo[2.2.1]heptan-7-yl]oxy]-4-pyridyl]pyrazolo[1,5-a]pyridin-2-amine]",0.0594 µM

# Same assay, conditions: enzyme 6 nM, 6 mM ATP and 400 μM HDAC5tide (each 2× final concentration); 30 minutes pre-incubation, 2 hours; ADP-Glo Max luminescence; read-out: SIK2 high ATP IC50 (μM) (Test Example 2)
row,Structure (SMILES),IC50
1,"Cc1cc(-c2ccn3nc(Nc4cc(C)c(=O)n(C5CC5)n4)cc3c2)c(OC[C@H]2OCC[C@@H]2O)cn1 [Example 317, 2-cyclopropyl-6-[[5-[5-[[(2R,3S)-3-hydroxytetrahydrofuran-2-yl]methoxy]-2-methyl-4-pyridyl]pyrazolo[1,5-a]pyridin-2-yl]amino]-4-methyl-pyridazin-3-one]",0.0017 µM
2,"Cc1cc(-c2ccn3nc(NC(=O)C4CC4)cc3c2)c(OC2CCC(=O)CC2)cn1 [Example 186, N-[5-[2-methyl-5-(4-oxocyclohexoxy)-4-pyridyl]pyrazolo[1,5-a]pyridin-2-yl]cyclopropanecarboxamide]",0.0164 µM
3,"CNc1cc(-c2ccn3nc(Nc4cc(C)nc(C)n4)cc3c2)c(OC[C@@H]2CNCCO2)cn1 [Example 501, N-(2,6-dimethylpyrimidin-4-yl)-5-[2-(methylamino)-5-[[(2S)-morpholin-2-yl]methoxy]-4-pyridyl]pyrazolo[1,5-a]pyridin-2-amine]",0.00172 µM
4,"N#Cc1ccc(OC[C@H]2CNCCO2)c(-c2ccn3nc(Nc4ccccn4)cc3c2)c1 [Example 478, 4-[[(2R)-morpholin-2-yl]methoxy]-3-[2-(2-pyridylamino)pyrazolo[1,5-a]pyridin-5-yl]benzonitrile]",< 0.000847 µM
5,"Cc1cc(-c2ccn3nc(Nc4cc(C)nc(C)n4)cc3c2)c(OCC(C)(C)O)cn1 [Example 200, 1-[[4-[2-[(2,6-dimethylpyrimidin-4-yl)amino]pyrazolo[1,5-a]pyridin-5-yl]-6-methyl-3-pyridyl]oxy]-2-methyl-propan-2-ol]",0.0445 µM
6,"CC#Cc1cc(-c2ccn3nc(NC(=O)C4CC4)cc3c2)c(O[C@H]2CCNC2)cn1 [Example 280, N-[5-[2-prop-1-ynyl-5-[(3S)-pyrrolidin-3-yl]oxy-4-pyridyl]pyrazolo[1,5-a]pyridin-2-yl]cyclopropanecarboxamide]",0.0032 µM
7,"COc1ccccc1COc1cnc(C)cc1-c1ccn2nc(Nc3cc(C)nc(C)n3)cc2c1 [Example 271, N-(2,6-dimethylpyrimidin-4-yl)-5-[5-[(2-methoxyphenyl)methoxy]-2-methyl-4-pyridyl]pyrazolo[1,5-a]pyridin-2-amine]",0.0234 µM
8,"COCc1cc(-c2ccn3nc(Nc4cc(C)nc(C)n4)cc3c2)c(OCC(C)(C)C#N)cn1 [Example 668, 3-[[4-[2-[(2,6-dimethylpyrimidin-4-yl)amino]pyrazolo[1,5-a]pyridin-5-yl]-6-(methoxymethyl)-3-pyridyl]oxy]-2,2-dimethyl-propanenitrile]",0.319 µM
9,"Cc1cc(-c2ccn3nc(Nc4cc(C)nc(N5CCCC5)n4)cc3c2)c(O[C@H]2CC[C@H](O)CC2)cn1 [Example 287, 4-[[6-methyl-4-[2-[(6-methyl-2-pyrrolidin-1-yl-pyrimidin-4-yl)amino]pyrazolo[1,5-a]pyridin-5-yl]-3-pyridyl]oxy]cyclohexanol]",0.00144 µM
10,"Cc1cc(-c2ccn3nc(Nc4cc(C)nc(C)n4)cc3c2)c(OC[C@@]2(O)CCOC2)cn1 (single isomer, unassigned) [Example 203, (*R)-3-(((4-(2-((2,6-dimethylpyrimidin-4-yl)amino)pyrazolo[1,5-a]pyridin-5-yl)-6-methylpyridin-3-yl)oxy)methyl)tetrahydrofuran-3-ol]",0.0469 µM
11,"Cc1cc(-c2ccn3nc(NC(=O)C4CC4)cc3c2)c(OCC2CN(CCF)C2)cn1 [Example 457, N-[5-[5-[[1-(2-fluoroethyl)azetidin-3-yl]methoxy]-2-methyl-4-pyridyl]pyrazolo[1,5-a]pyridin-2-yl]cyclopropanecarboxamide]",0.0298 µM
12,"CCn1nc(Nc2cc3cc(-c4cc(C)ncc4OCC(C)(C)O)ccn3n2)cc(C)c1=O [Example 247, 2-ethyl-6-[[5-[5-(2-hydroxy-2-methyl-propoxy)-2-methyl-4-pyridyl]pyrazolo[1,5-a]pyridin-2-yl]amino]-4-methyl-pyridazin-3-one]",0.00712 µM
13,"Cc1cc(Nc2cc3cc(-c4cc(C)ncc4OCC(C)(C)O)ccn3n2)nc(C(=O)NC2CC2)c1 [Example 638, N-cyclopropyl-6-[[5-[5-(2-hydroxy-2-methyl-propoxy)-2-methyl-4-pyridyl]pyrazolo[1,5-a]pyridin-2-yl]amino]-4-methyl-pyridine-2-carboxamide]",0.149 µM
14,"Cc1cc(-c2ccn3nc(Nc4cc(C)nc(C)n4)cc3c2)c(OC[C@]2(C)CCOC2)cn1 (single isomer, unassigned) [Example 535, (*R)—N-(2,6-dimethylpyrimidin-4-yl)-5-[2-methyl-5-[(3-methyltetrahydrofuran-3-yl)methoxy]-4-pyridyl]pyrazolo[1,5-a]pyridin-2-amine]",0.0107 µM
15,"Cc1cc(-c2ccn3nc(NC(=O)C4CC4)cc3c2)c(O[C@@H]2CNC[C@@H]2F)cn1 [Example 279, N-[5-[5-[(3R,4S)-4-fluoropyrrolidin-3-yl]oxy-2-methyl-4-pyridyl]pyrazolo[1,5-a]pyridin-2-yl]cyclopropanecarboxamide]",0.0032 µM
16,"Cc1cc(-c2ccn3nc(Nc4cc(C)nc(C)n4)cc3c2)c(OCCC(C)(C)O)cn1 [Example 555, 4-[[4-[2-[(2,6-dimethylpyrimidin-4-yl)amino]pyrazolo[1,5-a]pyridin-5-yl]-6-methyl-3-pyridyl]oxy]-2-methyl-butan-2-ol]",0.00997 µM
17,"Cc1cc(Nc2cc3cc(-c4cc(OC(F)F)ncc4OCC(C)(C)C(=O)N(C)C)ccn3n2)nc(C)n1 [Example 735, 3-[[6-(difluoromethoxy)-4-[2-[(2,6-dimethylpyrimidin-4-yl)amino]pyrazolo[1,5-a]pyridin-5-yl]-3-pyridyl]oxy]-N,N,2,2-tetramethyl-propanamide]",0.00911 µM
18,"CC(=O)N1CCO[C@H](COc2cnc(C)cc2-c2ccn3nc(Nc4cc(C)nc(C)n4)cc3c2)C1 [Example 628, 1-[(2S)-2-[[4-[2-[(2,6-dimethylpyrimidin-4-yl)amino]pyrazolo[1,5-a]pyridin-5-yl]-6-methyl-3-pyridyl]oxymethyl]morpholin-4-yl]ethanone]",0.755 µM
